Measurements published in patent US20140286906A1, “USE OF IGF-1 IN THE MODULATION OF TREG CELL ACTIVITY AND THE TREATMENT AND PREVENTION OF AUTOIMMUNE DISORDERS OR DISEASES” (priority 2011, published 2014).

Legend:
[1] = system: FOXP3 positive cells (CD25+ splenic cells); assay: Foxp3 and Ki67 flow cytometric analysis of Treg proliferation; format: cell-based, murine
Procedure: To determine the effect of IGF-1 in the regulatory subset in vitro (cf. FIG. 4) the number of FOXP3 positive cells is determined by flow cytometric analysis. To analyze other subsets, like the proinflammatory Th1 and Th17 subsets, a similar approach is used but the number of interferon-gamma (Th1) and IL-17 (Th17) positive cells is determined. Additionally, to evaluate the number of proliferating cells at a given moment cells are stained using the intracellular marker Ki67, which is expressed only in cycling cells. The combination of a specific lineage marker (e.g., Foxp3, IFN-g, IL-17) with Ki67 allows for the determination at a given moment of the cells belonging to a certain subset and their proliferative status.
In animal experiments, the population is isolated normally from murine spleen (but also could be isolated from other tissues, like for example but not restricted to bone marrow, adipose tissue, cord blood derived mononuclear cell, thymus, or peripheral blood) and is sorted using different markers (e.g., CD4 and CD25). This population is defined as CD4+CD25+ and includes the regulatory cells. This population is then treated in the above-mentioned medium in the presence of IGF-1. After several days of culture part of the cells are counted, fixed, permeabilized and analyzed by flow cytometry using an anti-FOXP3 antibody in combination with the same extracellular markers (CD4 and CD25). This allows for the determination of the absolute number of FOXP3 positive cells present in the culture.
To further define the proliferative effects of IGF-1, FACS-sorted CD25+ splenic cells (>98% purity) after two days in culture with recombinant IGF-1 were fixed, permeabilized and stained with antibodies against FOXP3 and Ki67. Foxp3 is a transcription factor that orchestrates the cellular and molecular programs involved in T regulatory function. Ki67 is a nuclear antigen present in proliferating cells. […] After three days of culture the number of FOXP3 positive cells was increased four-fold and the number of regulatory T cells proliferating approximately six-fold.

CD4+CD25+ splenic cells = assay: flow cytometry of activation and homing markers on CD4+CD25+ splenic cells; format: cell-based, murine; conditions: Deguelin 1 μM; Ly-294,002 and PD.98,059 10 μM (FIG. 10)
Source text: The expression of certain markers on the surface of the cell is correlated with the degree of activation of the cells and also controls their trafficking and localization and consequently the compartmentalization of the immune responses. This is again measured using flow cytometric methods. For example, cells expressing high levels of CD62L preferentially migrate to secondary lymphoid tissues. However, as these cells enter the periphery (for example when they travel to affected tissues during an autoimmune process) they rapidly acquire an activated phenotype and express higher levels of CD44. Thus upregulation of CD44 is associated with a higher proliferation rate. […] The importance of this observation comes from the fact that in order to exert their suppressive properties, Tregs need to migrate to the affected tissues first. Therefore, IGF-1 not only induces activation of proliferation but also promotes their correct localization.
Finally, the inventors analyzed the ability of IGF-1 to alter the homing properties of the regulatory T cell subset. In 2003, Fisson et al. defined two distinct population of regulatory T cells in homeostatic conditions. In the steady state, some Tregs remain quiescent for long periods of time, whereas the other Treg population divides extensively and express multiple activation markers. […] This pattern of change is also consistent with a more activated phenotype. On one hand, CD44^hiCD62L^lo Treg populations, but not their CD44^loCD62L^hi counterparts, constantly incorporate BrdU, a synthetic analog of thymidine, into newly synthesized DNA in lymphoid tissues (Matsushima and Takashima, 2010). On the other hand, higher levels of CD62L have been associated with a higher capacity of Tregs to migrate to the lymph nodes, while lower levels allows them to migrate to sites of inflammation (Fisson et al., 2003; Bromley et al., 2008). Thus, T regulatory cells expressing lower levels of CD62L would have a higher inflammation-seeking capacity, which has been associated with higher suppressive potential in various inflammation models (Huehn et al., 2005). […] One, IGF-1 is able to activate a complex pathway resulting in Treg activation leading to proliferation and to selective homing and migration to the sites of inflammation. The second conclusion comes from the observation that sequential migration from blood to the target tissue and then to draining lymph nodes is required for nTreg to differentiate and execute fully their suppressive function, by inhibiting dendritic cells in the peripheral tissue and T effector cell responses in dLN and periphery (Zhang et al., 2009). Thus, IGF-1 treatment not only results in higher numbers of T regulatory cells but also in altering the trafficking of these cells to achieve a higher suppressive effect. […]

SMILES | effect of inhibitor on IGF-1 effect on Treg proliferation ([1]; inhibitor 10 μM) | sensitivity of IGF-1 induced CD62L and CD44 changes to pathway inhibitor (CD4+CD25+ splenic cells) | effect of inhibitor on IGF-1 effect on Treg proliferation ([1]; inhibitor 1 μM)
O=c1cc(N2CCOCC2)oc2c(-c3ccccc3)cccc12 [Ly-294,002, reference compound] | sensitive | – | –
COc1cc2c(cc1OC)[C@@H]1C(=O)c3ccc4c(c3O[C@@H]1CO2)C=CC(C)(C)O4 [Deguelin, reference compound] | – | more sensitive | partially blocked
COc1cccc(-c2cc(=O)c3ccccc3o2)c1N [PD.98,059, reference compound] | partially blocked | – | –
